Data as given in patent US6953789B2, “Thiol compounds, their production and use” (Takeda Chemical Industries, Ltd., priority 1998, dated 2005).

molecular target: T1, recombinant human MMP-13 (Homo sapiens, UniProt P45452); test: Assay of MMP-13 inhibiting activity (fluorogenic peptide substrate); assay type: biochemical; details: Table 1; 37° C., 2 hours
T1 construct: made in house; host or cells: baculovirus (pBlueBac4 / Bac-N-Blue; virus made in Sf9), expressed in High-Five insect cells; culture supernatant used
Description: Based on the sequence described in the literature by Freije, J. M. et al (Journal of Biological Chemistry, 269: 16766-16773, 1994) and using a PCR method known per se, a human MMP-13 cDNA was obtained.
A pBlueBac4 (Invitrogen) and a Baculovirus vector Bac-N-Blue (Invitrogen) to each of which the human MMP-13 cDNA obtained above was integrated were co-transfected to an Sf9 cell to obtain a MMP-13-expressing recombinant virus.
The recombinant virus thus obtained was infected to a High-Five cell (Invitrogen), and the culture supernatant after three days was employed as an enzyme solution. Experiment 2 Assay of MMP-13 inhibiting activity
75 μl of a sample containing the recombinant human MMP-13, 200 mM sodium chloride, 20 mM calcium chloride, 0.1% Brij 35, 1 mM 2-mercaptoethanol, 200 mM tris-HCl buffer solution (pH7.5) and a test substance at various concentrations was treated with 25 μl of 40 μM MOCAc-Pro-Leu-Gly-Leu-A2pr(DNP)-Ala-Arg-NH2 (PEPTIDE KENKYUSHO) to initiate a reaction and kept at 37° C. for 2 hours, and then 100 μl of 500 mM sodium acetate-HCl buffer solution (pH3.0) was added to terminate the reaction.
The level of liberated MOCAc-Pro-Leu-Gly was determined using a fluorophotometer (MTP-32/F2: CORONA DENKI) at the excitation wavelength of 330 nm and the fluorescent wavelength of 405 nm. The fluorescent level of the reaction in the absence of a test substance was regarded as 100%, and the concentration of each test substance required for achieving 50% inhibition was indicated as IC50.

| IC50 | SMILES |
| --- | --- |
| 30 nM | CC(=O)SC1CC(=O)N(Cc2ccc(Oc3ccccc3)cc2)C1=O (centres unmarked) [Example 5, 3-Acetylthio-1-(4-phenoxybenzyl)pyrrolidine-2,5-dione] |
| 400 nM | CC(=O)SCC1CC(=O)N(Cc2ccc(Oc3ccccc3)cc2)C1=O (centres unmarked) [Example 10, 3-Acethylmethyl-1-(4-phenoxybenzyl)pyrrolidine-2,5-dione] |

same assay, conditions: Table 3; 37° C., 2 hours

| IC50 | SMILES |
| --- | --- |
| 6000 nM | O=C(O)CCS[C@@H]1CC(=O)N(Cc2ccc(Oc3ccccc3)cc2)C1 [Example 93, 3-{[(3R)-5-Oxo-1-(4-phenoxybenzyl)pyrrolidinyl]sulfanyl}propanoic acid] |
| 1000 nM | O=C(O)CS[C@@H]1CC(=O)N(Cc2ccc(Oc3ccccc3)cc2)C1 [Example 91, 2-{[(3R)-5-Oxo-1-(4-phenoxybenzyl)pyrrolidinyl]sulfanyl}acetic acid] |
| 1.3 nM | CC(=O)NC(=O)S[C@@H]1CC(=O)N(Cc2ccc(Oc3ccccc3)cc2)C1 [Example 55, S-[(3R)-5-oxo-1-(4-phenoxybenzyl)pyrrolidinyl]acetylthiocarbamate] |
| 1.6 nM | CCNC(=S)S[C@@H]1CC(=O)N(Cc2ccc(Oc3ccccc3)cc2)C1 [Example 77] |
| > 10000 nM | COC(=O)SS[C@@H]1CC(=O)N(Cc2ccc(Oc3ccccc3)cc2)C1 [Example 78, (4R)-4-[(Methoxycarbonyl)disulfanyl]-2-oxo-1-(4-phenoxybenzyl)pyrrolidine] |
| 2.4 nM | CC(C)(C)OC(=O)CC(=O)S[C@@H]1CC(=O)N(Cc2ccc(Oc3ccccc3)cc2)C1 [Example 72, t-Butyl 3-oxo-3-{[(3R)-5-oxo-1-(4-phenoxybenzyl)pyrrolidinyl]sulfanyl}propanoate] |
| 670 nM | C/C(=C(\CCO)SS[C@@H]1CC(=O)N(Cc2ccc(Oc3ccccc3)cc2)C1)N(C=O)Cc1cnc(C)nc1N [Example 88, (4-Amino-2-methyl-5-pyrimidinyl)methyl((Z)-4-hydroxy-1-methyl-2-{[(3R)-5-oxo-1-(4-phenoxybenzyl)pyrrolidinyl]disulfanyl}-1-butenyl)formamide] |

same assay, conditions: Table 5; 37° C., 2 hours

| SMILES | IC50 |
| --- | --- |
| NC(=O)C1C(S)CC(=O)N1Cc1ccc(Oc2ccccc2)cc1 (stereo not drawn) [Example 188, trans-5-Aminocarbonyl-4-mercapto-1-(4-phenoxybenzyl)pyrrolidin-2-one] | 13 nM |
| CCCNC(=O)OC[C@H]1[C@H](S)CC(=O)N1Cc1ccc(Oc2ccccc2)cc1 (relative stereo) [Example 184, trans-4-Mercapto-5-propylaminocarbonyloxymethyl-1-(4-phenoxybenzyl)pyrrolidin-2-one] | 2.3 nM |
| C[C@H]1[C@H](S)CC(=O)N1Cc1ccc(Oc2ccccc2)cc1 [Example 178, (4R,5S)-4-Mercapto-5-methyl-1-(4-phenoxybenzyl)pyrrolidin-2-one] | 5 nM |
| O=C1C[C@@H](S)[C@H](Cc2ccccc2)N1Cc1ccc(Oc2ccccc2)cc1 (relative stereo) [Example 182, trans-5-Benzyl-4-mercapto-1-(4-phenoxybenzyl)pyrrolidin-2-one] | 20 nM |

Further lines, results first:

| IC50 | SMILES |
| --- | --- |
| 5 nM | CC(=O)S[C@@H]1CC(=O)N(Cc2ccc(Oc3ccccc3)cc2)[C@H]1COCc1ccccc1 (relative stereo) [Example 38, Trans-4-acetylthio-5-benzyloxymethyl-1-(4-phenoxybenzyl)pyrrolidin-2-one] |
| 120 nM | CC(=O)S[C@@H]1CC(=O)N(Cc2ccc(Oc3ccccc3)cc2)[C@H]1C(=O)NCc1ccncc1 (relative stereo) [Example 191, trans-4-Acetylthio-5-(4-pyridylmethyl)aminocarbonyl-1-(4-phenoxybenzyl)pyrrolidin-2-one] |
| 89 nM | CC(=O)S[C@@H]1CC(=O)N(Cc2ccc(Oc3ccccc3)cc2)[C@H]1C(=O)NCCO (relative stereo) [Example 189, trans-4-Acetylthio-5-(2-hydroxyethyl)aminocarbonyl-1-(4-phenoxybenzyl)pyrrolidin-2-one] |
| 10 nM | CC(=O)SC1CC(=O)N(Cc2ccc(Oc3ccccc3)cc2)C1CO (stereo not drawn) [Example 20, Trans-4-acetylthio-5-hydroxymethyl-1-(4-phenoxybenzyl)pyrrolidin-2-one] |
| 25 nM | O=C(NCCO)[C@H]1[C@H](S)CC(=O)N1Cc1ccc(Oc2ccccc2)cc1 (relative stereo) [Example 190, trans-5-(2-Hydroxyethyl)aminocarbonyl-4-mercapto-1-(4-phenoxybenzyl)pyrrolidin-2-one] |

same assay, conditions: Table 7; 37° C., 2 hours

| IC50 | SMILES |
| --- | --- |
| 70 nM | O=C1C[C@@H](SS[C@@H]2CC(=O)N(Cc3ccc(Oc4ccccc4)cc3)C2)CN1Cc1ccc(Oc2ccccc2)cc1 [Example 26, (4R,4′R)-4,4′-Dithiobis[1-(4-phenoxybenzyl)pyrrolidin-2-one]] |

same assay, conditions: Table 9; 37° C., 2 hours

| SMILES | IC50 |
| --- | --- |
| CC(=O)SC1CC(=O)N(Cc2ccc(Oc3ccc(O)cc3)cc2)C1 (centres unmarked) [Example 136, 4-Acetylthio-1-[4-(4′-hydroxyphenoxy)benzyl]pyrrolidin-2-one] | 9 nM |
| CC(=O)SC1CC(=O)N(Cc2ccc(Oc3ccccc3)cc2[N+](=O)[O-])C1 (centres unmarked) [Example 150, 4-Acetylthio-1-(2-nitro-4-phenoxybenzyl)pyrrolidin-2-one] | 5500 nM |
| COc1ccc(Oc2ccc(CN3CC(S)CC3=O)cc2)cc1 (centres unmarked) [Example 37, 4-Mercapto-1-(4-(4′-methoxyphenoxy)benzyl)pyrrolidin-2-one] | 5 nM |
| Cc1ccc(Oc2ccc(CN3CC(S)CC3=O)cc2)cc1 (centres unmarked) [Example 128, 4-Mercapto-1-[4-(4′-methylphenoxy)benzyl]pyrrolidin-2-one] | 7 nM |
| CC(=O)S[C@@H]1CC(=O)N(Cc2ccc(Oc3ccc(Br)cc3)cc2)C1 [Example 199, (R)-4-Acetylthio-1-[4-(4′-bromophenoxy)benzyl]pyrrolidin-2-one] | 6 nM |

Further lines, results first:

| IC50 | SMILES |
| --- | --- |
| 3.5 nM | CCNC(=O)Nc1ccc(Oc2ccc(CN3CC(S)CC3=O)cc2)cc1 (centres unmarked) [Example 149, 4-Mercapto-1-[4-(4′-ethylaminocarbonylaminophenoxy)benzyl]pyrrolidin-2-one] |
| 25 nM | CCNC(=O)Nc1ccc(Oc2ccc(CN3CC(SC(C)=O)CC3=O)cc2)cc1 (centres unmarked) [Example 148, 4-Acetylthio-1-[4-(4′-ethylaminocarbonylaminophenoxy)benzyl]pyrrolidin-2-one] |
| 5 nM | O=C1CC(S)CN1Cc1ccc(Oc2ccc(Cl)cc2)cc1 (centres unmarked) [Example 33, 4-Mercaoto-1-(4-(4′-chlorophenoxy)benzyl)pyrrolidin-2-one] |

same assay, conditions: Table 10; 37° C., 2 hours

| IC50 | SMILES |
| --- | --- |
| > 10000 nM | CC(=O)SC1CC(=O)N(Cc2ccc([S+]([O-])c3ccccc3)cc2)C1 (centres unmarked) [Example 171, 4-Acetylthio-1-(4-phenylsulfinylbenzyl)pyrrolidin-2-one] |
| > 10000 nM | CC(=O)SC1CC(=O)N(Cc2ccc(S(=O)(=O)c3ccccc3)cc2)C1 (centres unmarked) [Example 173, 4-Acetylthio-1-(4-phenylsulfonylbenzyl)pyrrolidin-2-one] |

same assay, conditions: Table 11; 37° C., 2 hours

| IC50 | SMILES |
| --- | --- |
| > 10000 nM | CC(=O)SC1CC(=O)N(Cc2ccc(N(c3ccccc3)S(=O)(=O)c3ccc(C)cc3)cc2)C1 (centres unmarked) [Example 203, 4-Acetylthio-1-[4-(N-phenyl-N-p-toluenesulfonyl)aminobenzyl]pyrrolidin-2-one] |
| 6 nM | CC(=O)SC1CC(=O)N(Cc2ccc(Oc3ccsc3)cc2)C1 (centres unmarked) [Example 157, 4-Acetylthio-1-[4-(3′-thienyloxy)benzyl]pyrrolidin-2-one] |

same assay, conditions: Table 13; 37° C., 2 hours

| IC50 | SMILES |
| --- | --- |
| 10 nM | O=C(SC1CCC(=O)N(Cc2ccc(Oc3ccccc3)cc2)C1=O)c1ccccc1 (centres unmarked) [Example 44, 3-Benzoylthio-1-(4-phenoxybenzyl)piperidine-2,6-dione] |
